Reference: patent publication US7652046B2, “Substituted thienopyrrole carboxylic acid amides, pyrrolothiazole carboxylic acid amides, and related analogs as inhibitors of casein kinase I” (Aventis Pharmaceuticals Inc., priority 2004, dated 2010)

The compounds below were run against T1, Casein Kinase Iε (Homo sapiens, UniProt P49674) (assay: Casein Kinase Epsilon 33P-ATP Filter Plate Assay).
T1 construct: made in house
Type: biochemical
Excerpt: Casein Kinase Epsilon ^33P-ATP Filter Plate Assay for Screening CKIε Inhibitors
Purpose: This assay measures the ability of compounds to inhibit the phosphorylation of the substrate casein by the enzyme casein kinase 1ε using an in vitro ^33P-ATP filtration assay. […] Materials:
Equipment: • Beckman Biomek 2000 Liquid Handling Robot • Beckman Multimek 96 Automated 96 Channel Pipettor • Millipore Vacuum Manifold Basic Kit # MAVM0960R • Titertek Multidrop Liquid Dispenser • Packard TopCount NXT Liquid Scintillation Counter
Enzyme: • Casein Kinase 1ε final concentration 0.58 mg/ml obtained from fermentation and purification processes as are well known to one skilled in the art. The above are stored as 100 μL aliquots at minus 80° C.
Compounds: • Supply compounds for testing as frozen 10 mM compound stock dissolved in 100% DMSO. Assay Conditions:
Final total assay volume per well is equal to 50 μL that one prepares as follows: • 5 μL of diluted compound stock (10, 1, 0.1, 0.01 or 0.001 μM), • 5 μL of dephosphorylated casein final concentration 0.2 μg/μL, • 20 μL of CK1ε final concentration 3 ng/μL, and • 20 μL of γ-^33P-ATP final concentration 0.02 μCi/μL mixed with cold ATP (10 μM final). Methodology: • 1. Prepare 500 mL of fresh assay buffer: 50 mM Tris pH 7.5, 10 mM MgCl2, 2 mM DTT and 1 mM EGTA • 2. Obtain compounds to be evaluated as 10 μL of 10 mM stock dissolved in 100% DMSO. Use a Biomek 2000 liquid handling robot, make serial dilutions to yield 10, 1, 0.1, 0.01 and 0.001 μM final compound dilutions added as 5 μL additions to Falcon U bottom plates. […] A routine screening assay will consist of 32 compounds, which equals 4 assay plates. • 3. Assay plate maps are set up according to the following pattern CK1ePlateMap.xls
• 4. Add 5 μL of compound as indicated, then add 5 μL of dephosphorylated casein (dissolved in distilled H20)(0.2 μg/μL) and 20 μL CK1ε (3 ng/μL) to the appropriate wells. • 5. Finally add 20 μL γ-^33P-ATP (0.02 μCi/μL)/10 μM cold ATP (equals approximately 2×10^6 CPM per well). • 6. Vortes the Falcon U-Bottom assay plate containing the above 50 μL reaction volume and then incubate at room temperature for 2 hours. • 7. At the end of 2 hours, stop the reaction by the addition of 65 μL of ice cold 2 mM cold ATP (made up in assay buffer) to the assay plates using a Beckman Multimek. • 8. At the same time add 25 μL 100% ice cold TCA made up in distilled H20 to a matching number of Millipore MAPH filter plates. • 9. Using a handheld 8-channel pipettor, transfer 100 μL of the reaction mixture from the Falcon U-Bottom Plate to the Millipore MAPH filter plates presoaked with TCA. • 10. Mix the Millipore MAPH filter plates gently and allow to sit at room temperature for at least 30 minutes to precipitate the proteins. • 11. After 30 minutes, place the filter plates on a Millipore vacuum manifold and filter at no more than 8 mm Hg as the MAPH filters tend to “air lock” at higher vacuum settings. • 12. Wash the filter plates sequentially and filter with 2×150 μL 20% TCA, 2×150 μL 10% TCA and 2×150 μL 5% TCA (total of 6 washes per plate/900 μL per well). • 13. Allow the plates to dry overnight at room temperature. The next day add 40 μL Packard Microscint-20 Scintillation Fluid per well using a Titertek Multidrop dispenser; seal the plates and count for 2 minutes/well in a Packard Topcount NXT Scintillation Counter (to provide CPM values/well). Calculation: • 1. Import Counts Per Minute (CPM) data into a proprietary data calculation and archiving database (Activity Base by IDBS version 5.0). • 2. Column 1 for each plate reflects total phosphorylation activity of the enzyme in the absence of any inhibiting compound and thus represents 100%. Column 12 reflects any nonspecific phosphorylation/retained radioactivity activity in the absence of inhibiting compound and enzyme.

T1 sequence (P49674 whole entry): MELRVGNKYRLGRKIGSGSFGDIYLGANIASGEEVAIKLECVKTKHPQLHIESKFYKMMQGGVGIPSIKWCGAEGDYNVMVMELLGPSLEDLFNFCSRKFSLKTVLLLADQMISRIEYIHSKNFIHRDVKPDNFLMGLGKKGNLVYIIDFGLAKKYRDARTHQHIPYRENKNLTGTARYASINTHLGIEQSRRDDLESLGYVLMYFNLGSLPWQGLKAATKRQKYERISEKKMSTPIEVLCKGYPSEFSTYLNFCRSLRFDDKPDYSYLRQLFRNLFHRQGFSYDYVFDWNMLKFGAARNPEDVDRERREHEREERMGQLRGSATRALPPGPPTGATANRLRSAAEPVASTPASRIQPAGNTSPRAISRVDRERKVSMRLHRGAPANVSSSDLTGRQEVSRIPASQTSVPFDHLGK

Row | SMILES | Ki
1 | NC(=O)c1[nH]c2sccc2c1Sc1ccccn1 [IIa, 4-(pyridin-2-ylsulfanyl)-6H-thieno[2,3-b]pyrrole-5-carboxylic acid amide] | 64 nM
2 | NC(=O)c1[nH]c2sccc2c1Sc1ccncc1 [IId, 4-(Pyridin-4-ylsulfanyl)-6H-thieno[2,3-b]-pyrrole-5-carboxylic acid amide] | 1070 nM
3 | NC(=O)c1[nH]c2sccc2c1Sc1cc(Cl)cc(Cl)c1 [IIe, 4-(3,5-Dichlorophenyl-sulfanyl)-6H-thieno[2,3-b]pyrrole-5-carboxylic acid amide] | 109 nM
4 | NC(=O)c1[nH]c2sccc2c1Sc1cccs1 [IIf, 4-(Thiophen-2-yl-sulfanyl)-6H-thieno[2,3-b]pyrrole-5-carboxylic acid amide] | 1450 nM
5 | COc1cccc(Sc2c(C(N)=O)[nH]c3sccc23)c1 [IIh, 4-(3-Methoxyphenyl-sulfanyl)-6H-thieno[2,3-b]pyrrole-5-carboxylic acid amide] | 24.7 nM
6 | NC(=O)c1[nH]c2sccc2c1Sc1cccc(Cl)c1 [IIj, 4-(3-Chlorophenyl-sulfanyl)-6H-thieno[2,3-b]pyrrole-5-carboxylic acid amide] | 112 nM
7 | Cc1cccc(Sc2c(C(N)=O)[nH]c3sccc23)c1 [IIk, 4-(3-Methylphenyl-sulfanyl)-6H-thieno[2,3-b]pyrrole-5-carboxylic acid amide] | 70.6 nM
8 | COc1cccc(Sc2c(C(N)=O)[nH]c3sc(C)nc23)c1 [IIm, 6-(3-Methoxyphenyl-sulfanyl)-2-methyl-4H-pyrrolo[3,2-d]thiazole-5-carboxylic acid amide] | 68 nM
9 | Cc1nc2c(Sc3cccc(OC(F)(F)F)c3)c(C(N)=O)[nH]c2s1 [IIp, 6-(3-Trifluoromethoxy-phenylsulfanyl)-2-methyl-4H-pyrrolo[3,2-d]thiazole-5-carboxylic acid amide] | 4030 nM
10 | NC(=O)c1[nH]c2sc(Sc3ccccc3)nc2c1Sc1ccccc1 [IIq, 2,6-Bis-phenylsulfanyl-4H-pyrrolo[3,2-d]thiazole-5-carboxylic acid amide] | 334 nM
11 | COc1cccc(Sc2nc3c(Sc4cccc(OC)c4)c(C(N)=O)[nH]c3s2)c1 [IIr, 2,6-Bis-(3-methoxy-phenylsulfanyl)-4H-pyrrolo[3,2-d]thiazole-5-carboxylic acid amide] | 333 nM
12 | NC(=O)c1[nH]c2ccsc2c1Sc1ccccc1 [Ia, 6-Phenylsulfanyl-4H-thieno[3,2-b]pyrrole-5-carboxylic acid amide] | 544 nM
13 | NC(=O)c1[nH]c2ccsc2c1Sc1cccc(F)c1 [Ib, 6-(3-Fluorophenyl-sulfanyl)-4H-thieno[3,2-b]pyrrole-5-carboxylic acid amide] | 157 nM
14 | NC(=O)c1[nH]c2ccsc2c1Sc1ccc(Cl)cc1 [Ic, 6-(4-Chlorophenyl-sulfanyl)-4H-thieno[3,2-b]pyrrole-5-carboxylic acid amide] | > 10000 nM
15 | NC(=O)c1[nH]c2ccsc2c1Sc1ccccn1 [Ie, 6-(Pyridin-2-ylsulfanyl)-4H-thieno[3,2-b]pyrrole-5-carboxylic acid amide] | 159 nM
16 | Cc1ccc(Sc2c(C(N)=O)[nH]c3ccsc23)cc1 [If, 6-p-Tolylsulfanyl-4H-thieno[3,2-b]pyrrole-5-carboxylic acid amide] | 3090 nM
17 | NC(=O)c1[nH]c2ccsc2c1Sc1cccs1 [Ig, 6-(Thiophen-2-yl-sulfanyl)-4H-thieno[3,2-b]pyrrole-5-carboxylic acid amide] | 915 nM

Row | SMILES | Ki
18 | NC(=O)c1[nH]c2ccsc2c1Sc1cc(Cl)cc(Cl)c1 [Ih, 6-(3,5-Dichloro-phenylsulfanyl)-4H-thieno[3,2-b]pyrrole-5-carboxylic acid amide] | 71 nM
19 | NC(=O)c1[nH]c2ccsc2c1Sc1ccncc1 [Ii, 6-(Pyridin-4-ylsulfanyl)-4H-thieno[3,2-b]pyrrole-5-carboxylic acid amide] | 1680 nM
20 | Cc1cccc(Sc2c(C(N)=O)[nH]c3ccsc23)c1 [Ij, 6-m-Tolylsulfanyl-4H-thieno[3,2-b]pyrrole-5-carboxylic acid amide] | 116 nM
21 | Cc1ccccc1Sc1c(C(N)=O)[nH]c2ccsc12 [Ik, 6-o-Tolylsulfanyl-4H-thieno[3,2-b]pyrrole-5-carboxylic acid amide] | 468 nM
22 | NC(=O)c1[nH]c2ccsc2c1Sc1cccc(Cl)c1Cl [Il, 6-(2,3-Dichloro-phenylsulfanyl)-4H-thieno[3,2-b]pyrrole-5-carboxylic acid amide] | 324 nM
23 | NC(=O)c1[nH]c2ccsc2c1Sc1cc(Cl)ccc1Cl [Im, 6-(2,5-Dichloro-phenylsulfanyl)-4H-thieno[3,2-b]pyrrole-5-carboxylic acid amide] | 1270 nM
24 | CCc1ccccc1Sc1c(C(N)=O)[nH]c2ccsc12 [In, 6-(2-Ethylphenylsulfanyl)-4H-thieno[3,2-b]pyrrole-5-carboxylic acid amide] | 238 nM
25 | NC(=O)c1[nH]c2ccsc2c1Sc1cccc(Br)c1 [Io, 6-(3-Bromo-phenylsulfanyl)-4H-thieno-[3,2-b]pyrrole-5-carboxylic acid amide] | 78.7 nM
26 | Cc1cc(C)cc(Sc2c(C(N)=O)[nH]c3ccsc23)c1 [Ip, 6-(3,5-Dimethylphenylsulfanyl)-4H-thieno[3,2-b]pyrrole-5-carboxylic acid amide] | 357 nM
27 | COc1cccc(Sc2c(C(N)=O)[nH]c3ccsc23)c1 [Iq, 6-(3-Methoxy-phenylsulfanyl)-4H-thieno[3,2-b]pyrrole-5-carboxylic acid amide] | 38 nM
28 | COc1ccccc1Sc1c(C(N)=O)[nH]c2ccsc12 [Ir, 6-(2-Methoxy-phenylsulfanyl)-4H-thieno[3,2-b]pyrrole-5-carboxylic acid amide] | 331 nM
29 | NC(=O)c1[nH]c2ccsc2c1Sc1ccccc1C(F)(F)F [Is, 6-(2-Trifluoromethyl-phenylsulfanyl)-4H-thieno[3,2-b]pyrrole-5-carboxylic acid amide] | 481 nM
30 | NC(=O)c1[nH]c2ccsc2c1Sc1ccccc1F [It, 6-(2-Fluoro-phenylsulfanyl)-4H-thieno[3,2-b]pyrrole-5-carboxylic acid amide] | 425 nM
31 | NC(=O)c1[nH]c2ccsc2c1Sc1cccc(OC(F)(F)F)c1 [Iu, 6-(3-Trifluoromethoxy-phenylsulfanyl)-4H-thieno[3,2-b]pyrrole-5-carboxylic acid amide] | 562 nM
32 | NC(=O)c1[nH]c2ncsc2c1Sc1ccccc1 [Iv, 6-Phenylsulfanyl-4H-pyrrolo[2,3-d]thiazole-5-carboxylic acid amide] | 4550 nM
33 | NC(=O)c1[nH]c2ncsc2c1Sc1cccc(F)c1 [Iw, 6-(3-Fluoro-phenylsulfanyl)-4H-pyrrolo[2,3-d]thiazole-5-carboxylic acid amide] | 2030 nM
34 | NC(=O)c1[nH]c2ncsc2c1Sc1ccccn1 [Ix, 6-(Pyridin-2-ylsulfanyl)-4H-pyrrolo[2,3-d]thiazole-5-carboxylic acid amide] | 1750 nM
